Measurements as given in the NIST ThermoML archive (doi:10.1021/acs.jced.7b01004).
Numbers after ± are expanded uncertainties.

How the values were obtained:
[1] = refractive index (Na D-line) (dimensionless); xn = mol fraction of the nth substance listed; conditions: 293.15 K; 99.6 kPa; Liquid; Standard Abbe refractometry; x1 = 0.5
[2] = xn = mol fraction of the nth substance listed; conditions: 99.6 kPa, Liquid, x1 = 0.5; for viscosity: Concentric cylinders viscometry; for mass density: Vibrating tube method

CCCCn1cc[n+](C)c1.CS(=O)(=O)[O-] [1-butyl-3-methylimidazolium methanesulfonate] + NC(N)=O
Conditions	refractive index
[1]	1.493 ± 0.001

[2]
Conditions	mass density [kg/m3]	viscosity [mPa·s]
293.15 K	1202.2 ± 1.2	1892.9 ± 93
303.15 K	1195.6 ± 1.2	686.69 ± 25
313.15 K	1189.2 ± 1.2	295.72 ± 7.4
323.15 K	1182.7 ± 1.2	145.85 ± 2.3
333.15 K	1176.3 ± 1.2	80.41 ± 0.74
